Measurements taken from paper PMC9960696, “Functional Expression of Recombinant Candida auris Proteins in Saccharomyces cerevisiae Enables Azole Susceptibility Evaluation and Drug Discovery” (Journal of Fungi, 2023).

Each molecule was assayed against T1, CauErg11-6×His (Candidozyma auris, UniProt A0A2H1A309) (assay: type II difference spectra titration).
T1 construct: gene B9J08_03698; full-length, C-terminal GGR linker and 6xHis kept; expressed in S. cerevisiae ADΔΔ (Y2767, native ERG11 deleted); DM-solubilised, Ni-NTA partially purified; mutant Y132F in strain Y2768
T1 sequence (A0A2H1A309 entry or part of it): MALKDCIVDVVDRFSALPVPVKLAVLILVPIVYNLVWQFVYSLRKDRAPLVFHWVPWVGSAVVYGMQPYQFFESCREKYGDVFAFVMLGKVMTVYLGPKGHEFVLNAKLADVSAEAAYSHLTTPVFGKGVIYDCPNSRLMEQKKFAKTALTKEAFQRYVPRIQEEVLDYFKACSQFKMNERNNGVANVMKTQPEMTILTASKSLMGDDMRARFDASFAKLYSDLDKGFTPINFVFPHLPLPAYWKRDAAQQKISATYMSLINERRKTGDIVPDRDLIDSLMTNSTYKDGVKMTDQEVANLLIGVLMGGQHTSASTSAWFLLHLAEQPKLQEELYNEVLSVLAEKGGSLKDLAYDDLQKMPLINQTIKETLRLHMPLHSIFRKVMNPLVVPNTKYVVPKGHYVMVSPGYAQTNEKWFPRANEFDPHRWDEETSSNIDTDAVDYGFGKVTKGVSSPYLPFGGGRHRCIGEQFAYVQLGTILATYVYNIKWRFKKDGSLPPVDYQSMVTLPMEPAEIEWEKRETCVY
Format: binding
Text: type II difference spectra titration on CauErg11-6×His
For `C[C@@H](c1nc(-c2ccc(C#N)cc2)cs1)[C@](O)(Cn1cncn1)c1cc(F)ccc1F` [ISA, Isavuconazole], the Kd was 200 nM.
Work on `CC[C@@H]([C@H](C)O)n1ncn(-c2ccc(N3CCN(c4ccc(OC[C@@H]5CO[C@@](Cn6cncn6)(c6ccc(F)cc6F)C5)cc4)CC3)cc2)c1=O` [POS, Posaconazole] yielded a Kd of 340 nM.
Molecule `C[C@@H](c1ncncc1F)[C@](O)(Cn1cncn1)c1ccc(F)cc1F` [VRC, Voriconazole] has a Kd of 740 nM.
